According to paper PMC6062912, “The Evolutionary Conserved γ-Core Motif Influences the Anti-Candida Activity of the Penicillium chrysogenum Antifungal Protein PAF” (Frontiers in Microbiology, 2018):
Converted amounts (≈) assume the structure as drawn. “And” between values parts separate entries of the source, which are not always exact repeats. Equal values may be shown once. Read-outs that look alike come from different tables or passages of the source. Positions of bridges follow the written chain, without caps; N, C: chain ends. Residues, ends and D or L forms follow the SMILES beside them. *: point of attachment. Acm = CC(=O)NC*

Experiments:
Type in all cases: cell-based, Candida albicans
C. albicans [1] = details: for antifungal activity of scrambled peptide analog compared with original peptide: compared with Pγ, Pγ^var and Pγ^opt, respectively, data not shown; for MIC: 24 h
Procedure: Fungal strains used in this study are listed in Supplementary Table S1 and composition of growth media is given in Supplementary Table S2. All P. chrysogenum shaking cultures were inoculated with 2 × 10^8 conidia, in 200 mL defined minimal medium (PcMM) for protein expression or complete medium (CM) before transformation, and grown at 25°C as described ([Sonderegger et al., 2016]). For conidial suspension generation from surface cultures, P. chrysogenum was grown on PcMM agar at 25°C. C. albicans was used as PAF-sensitive model organism and was cultivated on yeast extract peptone dextrose (YPD) agar at 37°C. For growth inhibition and susceptibility assays, C. albicans was grown in 20-fold diluted potato dextrose broth (PDB, Sigma-Aldrich) at 30°C, pH 5.5 ([Huber et al., 2018]).
The MIC of all protein and peptide variants was determined on C. albicans with broth microdilution assays in 96-well microtiter plates (Nunclon Delta, Thermo Fisher Scientific). From a fresh C. albicans overnight culture on YPD agar, cells were harvested with an inoculation loop and suspended in 0.05× PDB (Sigma-Aldrich) ([Arendrup et al., 2016]). The cell number was determined with a counting chamber (Bürker) and the cell number was adjusted to 10^4 mL^-1. In each well, 10^3 cells were incubated with increasing concentrations of antifungal proteins or peptides in a final volume of 200 μL 0.05× PDB. The plates were incubated for 24 h at 30°C before the growth was determined by measuring the optical density (OD620nm) with a multi-mode microplate reader (FLUOstar Omega, BMG Labtech). The MIC was defined as the protein concentration that inhibited growth by ≥90% compared to the untreated control, which was referred as 100% growth.

C. albicans [2] = details: 10 min exposure, mean ± SD, untreated control 1.8 ± 1.2%
Procedure: (§1) To analyze changes in cell size and to assess kinetics of cell death of C. albicans upon antifungal treatment flow cytometry was applied. For both experiments, 10^4 cells mL^-1 was incubated in 0.05× PDB with the desired AMP concentration for different time points. The incubation was performed in 1.5 mL reaction tubes at 30°C under continuous shaking at 800 rpm in a Thermomixer Comfort (Eppendorf). After incubation, the cells were centrifuged at 4°C with 3,000 ×g for 3 min. For cell size determination, the supernatant was removed and the cells were resuspended and fixed in PBS containing 3.7% (v/v) formaldehyde before changes in cell size were measured by plotting SSC against FSC. C. albicans that were incubated at 95°C for 120 min served as controls. Microscopic control-images were taken with a fluorescence microscope (Axioplan, Zeiss), equipped with a camera (Axiocam 503 mono, Zeiss) and excitation/emission filters (365/420 nm for blue fluorescence and 546/590 or 565/620 nm for red fluorescence, Zeiss). Image acquisition was performed with ZEN 2 microscope software (Zeiss, blue edition) and the cell area was measured with ImageJ 1.52d software ([Schindelin et al., 2012]).
For dead-cell staining, prior to fixation, the cells were incubated in the dark for 30 min at 4°C with 100 μL PBS containing 0.1 μL LIVE/DEAD^TM Fixable Far Red Dead Cell Stain (Thermo Fisher Scientific). The cells were then washed once in PBS and fixed in PBS containing 3.7% formaldehyde. Ethanol-inactivated dead C. albicans served as a positive staining control. The samples were then analyzed by FACS (FACSVerse Flow Cytometer, BD Biosciences), equipped with BD FACSuite software (v1.0.6.5230, BD Biosciences). Dead cells were detected at Excitation/Emission wavelength of 650/665 nm. Stained, live, and dead Candida cells were used as controls to discriminate populations and to set the gates.
To elucidate the AMPs candidacidal activities at an early stage and to compare their time and dose-dependent cell killing in more detail, fluorescence activated cell sorting (FACS) analysis with dead-cell staining was applied. To this end, C. albicans was exposed to 1× and 2× MIC of the respective AMPs for 10 min, stained with the dead-cell marker, and fixed with formaldehyde. With FACS analyses, 1.8 ± 1.2% dead cells were detected in the untreated control (Figure 3).

C. albicans [3] = details: 2 h
Procedure: Fungistatic or fungicidal activities were determined by incubating C. albicans (10^4 cells mL^-1) in 0.05× PDB with proteins and peptides at 1× MIC and 2× MIC of at 30°C under continuous shaking (800 rpm) in a Thermomixer Comfort (Eppendorf). At defined time points, aliquots were taken and appropriate dilutions were plated on YPD agar in duplicates to promote growth of viable cells. Agar plates were incubated at 37°C for 24 h to count colony forming units (cfu) ([Huber et al., 2018]).
The determination of the MIC concentration is a well-established, reliable method to elucidate the growth reducing effect of an antifungal compound. […] To gain deeper insight into the antifungal mechanism of the generated protein and peptide variants, we compared them first for their fungicidal potential. In liquid culture C. albicans was exposed to 1× MIC and 2× MIC concentrations of each protein and peptide. After certain time points aliquots were taken and appropriate dilutions were spread on agar plates to allow colony formation of viable cells. The cfu were counted and compared to the untreated control, which was set to be 100%. […] The candidacidal effects were aggravated with higher protein concentrations.

C. albicans [4] = experiment: Cell size reduction (FSC) by flow cytometry; details: 1× MIC and 2× MIC, 10 and 30 min
Procedure: as §1
Cell shrinkage of C. albicans is a sign for cell death when exposed to AMPs ([Lee et al., 2017]). We therefore analyzed the changes in size of AMP-treated C. albicans cells by recording the FSC with flow cytometry. To this end, C. albicans cells were analyzed after 10 and 30 min of exposure to 1× MIC and 2× MIC of AMPs (Figure 5). Heat-killed and untreated C. albicans cells served as positive and negative controls, respectively (Supplementary Figure S8). […] Pγ^var and Pγ^opt caused a very prominent decrease in the FSC value compared to the untreated cell population when applied at 2× MIC. Pγ^var and Pγ^opt reduced the average cell size after a 10-min treatment by 28 ± 13 (P = 0.022) and 18 ± 10% (P = 0.041), respectively, and after 30 min the cell size was reduced by 48 ± 8 (P < 0.001) and 37 ± 12% (P = 0.007), respectively.

C. albicans biofilms = experiment: Anti-biofilm activity, FDA fluorescence; details: AMP 0–40 μM for 24 h at 30°C; for concentration inhibiting cell metabolism in biofilm (FDA fluorescence): 24-h-old biofilms; for concentration with anti-biofilm (inhibitory) activity, extinction of FDA fluorescence: 1 h old (young) biofilms
Procedure: The antifungal activity against C. albicans biofilms was determined in 96-well microtiter plates (Nunclon Delta, Thermo Fisher Scientific). Cells (10^5) in 100 μL 0.05× PDB were distributed per well and plates were incubated at 37°C for up to 24 h to allow biofilm formation. After cell adherence, the microtiter plates were washed once with 0.05× PDB and the test substances were added in increasing concentrations in 100 μL 0.05× PDB per well. H2O2 served as a control for cell killing. The plates were further incubated at 30°C for 24 h. The wells were washed once with 0.05× PDB and 100 μL of FDA solution (40 μg mL^-1 in 0.05× PDB) was added to the wells. Wells containing only FDA solution (40 μg mL^-1 in 0.05× PDB) were used as blank background control. The plates were incubated for 1 h at 37°C in the dark before the fluorescence signal intensity was measured in a multi-mode microplate reader (FLUOstar Omega, BMG Labtech) with excitation and emission wavelengths of 485 and 520 nm. All experiments were prepared at least in duplicates and repeated at least twice.
Next, we analyzed the potential of the AMPs to inhibit C. albicans biofilm formation. Low susceptibility of biofilms to antifungal agents is often a limiting factor in anti-Candida treatment. To this end, C. albicans cells were distributed in 96-well microtiter plates, allowed to settle down, and to develop biofilms for 1 and 24 h. Then, planktonic cells were washed off and AMPs were added to the biofilms for another 24 h in a concentration range of 0–40 μM. The biofilms were then quantified by adding FDA to the wells. Metabolically active cells convert non-fluorescent FDA into highly fluorescent fluorescein by intracellular enzymatic activity ([Peeters et al., 2008]). The resulting fluorescence signal intensity from AMP-treated biofilms was measured and compared to untreated conditions. […] Twenty-four-hour-old biofilms, however, were resistant against PAF, PAF^var, and PAF^opt in the investigated concentration range (data not shown).

[5] = 1× MIC, 0.05× PDB, 30°C, mean ± SD

Compound: TCKKNKKKKYGKTC [Pγ^opt_scr, scrambled peptide analog of Pγ^opt]
- antifungal activity of scrambled peptide analog compared with original peptide (C. albicans [1]): same antifungal activity

Compound: CC(=O)NCSC[C@H](NC(=O)[C@H](CCC(=O)O)NC(=O)[C@H](CC(N)=O)NC(=O)[C@H](CCCCN)NC(=O)[C@H](CO)NC(=O)[C@H](CCCCN)NC(=O)[C@@H](NC(=O)[C@H](CSCNC(C)=O)NC(=O)[C@H](CCCCN)NC(=O)CNC(=O)[C@@H](NC(=O)[C@H](Cc1ccc(O)cc1)NC(=O)[C@H](CCCCN)NC(C)=O)[C@@H](C)O)[C@@H](C)O)C(=O)N[C@@H](CCCCN)C(N)=O [Pγ_prot] (Ac-KYTGKC(Acm)TKSKNEC(Acm)K-NH2)
- MIC (C. albicans [1]): 40 µM (≈ 72 µg/mL)

Compound: CC(=O)N[C@@H](CCCCN)C(=O)N[C@@H](Cc1ccc(O)cc1)C(=O)N[C@H](C(=O)NCC(=O)N[C@@H](CCCCN)C(=O)N[C@@H](CS)C(=O)N[C@H](C(=O)N[C@@H](CCCCN)C(=O)N[C@@H](CO)C(=O)N[C@@H](CCCCN)C(=O)N[C@@H](CC(N)=O)C(=O)N[C@@H](CCC(=O)O)C(=O)N[C@@H](CS)C(=O)N[C@@H](CCCCN)C(N)=O)[C@@H](C)O)[C@@H](C)O [Pγ] (Ac-KYTGKCTKSKNECK-NH2)
- dead cells (cells killed), FACS dead-cell staining (C. albicans [2]; 1× MIC): No significant cell-killing
- dead cells (cells killed), FACS dead-cell staining (C. albicans [2]; 2× MIC): No significant cell-killing
- Candida cells killed (cfu vs untreated control) (C. albicans [3]; [5]): no killing effects
- Candida cells killed (cfu vs untreated control) (C. albicans [3]; 2): 31 ± 23%
- MIC (C. albicans [1]): 10.0 µM (≈ 16.6 µg/mL)
- cell shrinkage (C. albicans [4]): did not result in cell shrinkage
- concentration inhibiting cell metabolism in biofilm (FDA fluorescence) (C. albicans biofilms): no impact
- concentration with anti-biofilm (inhibitory) activity, extinction of FDA fluorescence (C. albicans biofilms): 40 µM

Compound: Penicillium chrysogenum antifungal protein [PAF]
- dead cells (cells killed), FACS dead-cell staining (C. albicans [2]; 1× MIC): did not cause significant increase
- dead cells (cells killed), FACS dead-cell staining (C. albicans [2]; 2× MIC): did not cause significant increase
- Candida cells killed (cfu vs untreated control) (C. albicans [3]; [5]): no detectable killing activity
- Candida cells killed (cfu vs untreated control) (C. albicans [3]; 2× MIC, 0.05× PDB, 30°C, mean ± SD): 26 ± 6%
- MIC (C. albicans [1]; 10^3 cells per well in 200 μL 0.05× PDB, 30°C, OD620nm, MIC = concentration inhibiting growth by ≥90% vs untreated control): 5 µM and 5.0 µM
- cell shrinkage (C. albicans [4]): did not result in cell shrinkage
- concentration inhibiting cell metabolism in biofilm (FDA fluorescence) (C. albicans biofilms): resistant
- concentration with anti-biofilm (inhibitory) activity, extinction of FDA fluorescence (C. albicans biofilms): only moderately reduced the metabolic activity

Compound: CTNKYSCKKGETKK [Pγ_scr, scrambled peptide analog of Pγ]
- antifungal activity of scrambled peptide analog compared with original peptide (C. albicans [1]): same antifungal activity

Compound: CC(=O)N[C@@H](CCCCN)C(=O)N[C@@H](Cc1ccc(O)cc1)C(=O)N[C@H](C(=O)NCC(=O)N[C@@H](CCCCN)C(=O)N[C@H]1CSSC[C@@H](C(=O)N[C@@H](CCCCN)C(N)=O)NC(=O)[C@H](CCC(=O)O)NC(=O)[C@H](CC(N)=O)NC(=O)[C@H](CCCCN)NC(=O)[C@H](CO)NC(=O)[C@H](CCCCN)NC(=O)[C@H]([C@@H](C)O)NC1=O)[C@@H](C)O [Pγ_ox] (Ac-KYTGKCTKSKNECK-NH2; disulfide 6-13)
- MIC (C. albicans [1]): 40 µM (≈ 66.3 µg/mL)

Compound: TNGKKYKKKEYCCK [Pγ^var_scr, scrambled peptide analog of Pγ^var]
- antifungal activity of scrambled peptide analog compared with original peptide (C. albicans [1]): same antifungal activity
